Activity calls are given as the source filed them. The calls are words filed in the database; no cut-off is given here.
How the values were obtained:
[1] = Cmax in mouse at 150 mg/kg, po; type: ADME, organism-based; set-up: dose 150 mg/kg, route oral; settings: in vivo
Histone deacetylase 1 = Histone deacetylase 1 (Homo sapiens, UniProt Q13547); assay: Inhibition of HDAC1
HCT-116 [2] = assay: Antiproliferative activity against human HCT116 cells after 72 hrs; type: functional; settings: HCT-116, 72 h
[3] = AUC in mouse at 150 mg/kg, po; type: ADME, organism-based, Plasma; set-up: dose 150 mg/kg, route oral; settings: whole blood
[4] = target: T1, Protein deacetylase HDAC6 (Homo sapiens, UniProt Q9UBN7); assay: Inhibition of HDAC6
T1 sequence (Q9UBN7 whole entry): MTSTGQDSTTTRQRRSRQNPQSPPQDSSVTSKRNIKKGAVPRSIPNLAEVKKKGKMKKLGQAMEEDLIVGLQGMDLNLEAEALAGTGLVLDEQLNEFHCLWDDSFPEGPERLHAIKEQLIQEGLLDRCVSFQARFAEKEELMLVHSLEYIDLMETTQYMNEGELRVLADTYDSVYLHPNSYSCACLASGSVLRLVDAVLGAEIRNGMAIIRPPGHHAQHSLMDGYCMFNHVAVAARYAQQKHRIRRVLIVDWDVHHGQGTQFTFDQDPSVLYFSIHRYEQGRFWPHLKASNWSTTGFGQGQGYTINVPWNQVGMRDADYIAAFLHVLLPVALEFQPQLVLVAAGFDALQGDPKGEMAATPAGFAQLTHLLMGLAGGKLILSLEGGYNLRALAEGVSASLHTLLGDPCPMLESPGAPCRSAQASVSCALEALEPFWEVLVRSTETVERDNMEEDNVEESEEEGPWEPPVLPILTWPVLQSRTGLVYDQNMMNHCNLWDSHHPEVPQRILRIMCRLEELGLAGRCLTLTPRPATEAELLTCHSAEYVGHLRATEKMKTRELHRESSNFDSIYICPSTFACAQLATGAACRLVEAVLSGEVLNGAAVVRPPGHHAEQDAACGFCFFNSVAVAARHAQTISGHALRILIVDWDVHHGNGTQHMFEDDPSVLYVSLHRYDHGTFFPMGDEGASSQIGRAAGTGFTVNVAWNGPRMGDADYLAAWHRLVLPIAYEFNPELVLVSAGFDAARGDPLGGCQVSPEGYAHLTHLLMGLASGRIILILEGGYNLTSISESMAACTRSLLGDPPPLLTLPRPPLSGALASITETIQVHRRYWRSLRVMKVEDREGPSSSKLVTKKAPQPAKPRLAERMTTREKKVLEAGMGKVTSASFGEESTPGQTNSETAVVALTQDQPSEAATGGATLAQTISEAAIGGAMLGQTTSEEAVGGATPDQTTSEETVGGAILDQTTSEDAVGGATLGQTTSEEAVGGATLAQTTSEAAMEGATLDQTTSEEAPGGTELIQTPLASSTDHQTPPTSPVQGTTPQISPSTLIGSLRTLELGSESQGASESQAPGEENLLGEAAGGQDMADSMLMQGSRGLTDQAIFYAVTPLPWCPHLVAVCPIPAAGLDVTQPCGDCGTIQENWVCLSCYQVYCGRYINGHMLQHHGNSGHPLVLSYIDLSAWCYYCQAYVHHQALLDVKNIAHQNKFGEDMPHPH

Mus musculus [5] = assay: Effect on histone H2B acetylation in human HCT116 cells xenografted in CD1 mouse assessed as change in ratio of acetylated to deacetylated histone level at 150 mg/kg, po QD for 3 days measured after 8 hrs; type: functional, organism-based; set-up: dose 150 mg/kg; settings: HCT-116
Histone deacetylase 4 = Histone deacetylase 4 (Homo sapiens, UniProt P56524); assay: Inhibition of HDAC4
Histone deacetylase 8 = target: T2, Histone deacetylase 8 (Homo sapiens, UniProt Q9BY41); assay: Inhibition of HDAC8
T2 sequence (Q9BY41 whole entry): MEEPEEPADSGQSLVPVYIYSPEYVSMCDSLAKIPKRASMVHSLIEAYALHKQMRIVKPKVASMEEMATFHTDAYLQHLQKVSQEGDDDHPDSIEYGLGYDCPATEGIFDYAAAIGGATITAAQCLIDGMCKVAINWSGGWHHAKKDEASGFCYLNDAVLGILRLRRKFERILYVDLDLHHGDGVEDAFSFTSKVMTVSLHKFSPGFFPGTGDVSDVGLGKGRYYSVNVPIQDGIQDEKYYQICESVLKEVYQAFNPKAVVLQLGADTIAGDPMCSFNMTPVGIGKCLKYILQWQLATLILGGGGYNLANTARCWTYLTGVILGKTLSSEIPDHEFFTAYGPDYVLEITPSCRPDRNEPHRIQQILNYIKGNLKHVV

Histone deacetylase 2 = Histone deacetylase 2 (Homo sapiens, UniProt Q92769); assay: Inhibition of HDAC2
Histone deacetylase 3 = Histone deacetylase 3 (Homo sapiens, UniProt O15379); assay: Inhibition of HDAC3
Histone deacetylase 7 = target: T3, Histone deacetylase 7 (Homo sapiens, UniProt Q8WUI4); assay: Inhibition of HDAC7
T3 sequence (Q8WUI4 whole entry): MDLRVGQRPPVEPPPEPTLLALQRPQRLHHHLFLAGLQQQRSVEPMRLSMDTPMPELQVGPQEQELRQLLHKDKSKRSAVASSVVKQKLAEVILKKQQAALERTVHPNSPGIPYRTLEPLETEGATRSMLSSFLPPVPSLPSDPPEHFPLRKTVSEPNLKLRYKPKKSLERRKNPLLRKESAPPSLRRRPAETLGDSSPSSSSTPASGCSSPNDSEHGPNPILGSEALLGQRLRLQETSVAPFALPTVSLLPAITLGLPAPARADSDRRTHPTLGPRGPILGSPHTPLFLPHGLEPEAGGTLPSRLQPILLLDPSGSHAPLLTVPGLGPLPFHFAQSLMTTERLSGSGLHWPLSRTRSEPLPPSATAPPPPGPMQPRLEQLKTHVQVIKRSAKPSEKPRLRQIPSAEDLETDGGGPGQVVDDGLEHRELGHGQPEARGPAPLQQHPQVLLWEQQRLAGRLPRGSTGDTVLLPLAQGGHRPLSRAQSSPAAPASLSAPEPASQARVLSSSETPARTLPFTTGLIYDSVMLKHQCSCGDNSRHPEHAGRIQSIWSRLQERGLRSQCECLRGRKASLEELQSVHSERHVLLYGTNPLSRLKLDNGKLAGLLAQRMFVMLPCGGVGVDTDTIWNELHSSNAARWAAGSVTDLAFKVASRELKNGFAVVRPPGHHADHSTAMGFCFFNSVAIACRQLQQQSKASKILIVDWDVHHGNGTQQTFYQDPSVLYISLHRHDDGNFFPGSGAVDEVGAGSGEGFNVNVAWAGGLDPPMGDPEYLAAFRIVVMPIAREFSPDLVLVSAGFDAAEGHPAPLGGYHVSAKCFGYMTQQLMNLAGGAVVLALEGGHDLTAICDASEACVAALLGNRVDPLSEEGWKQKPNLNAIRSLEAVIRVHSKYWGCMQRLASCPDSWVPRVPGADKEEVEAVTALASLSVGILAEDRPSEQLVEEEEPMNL

Histone deacetylase 5 = Histone deacetylase 5 (Homo sapiens, UniProt Q9UQL6); assay: Inhibition of HDAC5
Mus musculus [6] = assay: Toxicity in human HCT116 cells xenografted CD1 mouse at 150 to 300 mg/kg, po after 21 days; type: organism-based, HCT-116; set-up: dose 150-300 mg/kg, route oral; settings: in vivo, 504 h
Histone deacetylase 11 = target: T4, Histone deacetylase 11 (Homo sapiens, UniProt Q96DB2); assay: Inhibition of HDAC11
T4 sequence (Q96DB2 whole entry): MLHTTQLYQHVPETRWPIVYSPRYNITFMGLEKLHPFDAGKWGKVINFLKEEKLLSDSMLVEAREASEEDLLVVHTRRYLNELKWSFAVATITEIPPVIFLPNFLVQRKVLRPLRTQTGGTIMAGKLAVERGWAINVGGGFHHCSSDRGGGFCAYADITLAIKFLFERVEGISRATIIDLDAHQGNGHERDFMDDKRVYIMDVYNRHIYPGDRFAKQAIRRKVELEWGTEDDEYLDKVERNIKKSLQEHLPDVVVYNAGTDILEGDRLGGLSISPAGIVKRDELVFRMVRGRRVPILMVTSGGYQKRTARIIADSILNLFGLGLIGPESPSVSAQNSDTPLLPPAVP

HCT-116 [7] = assay: Antitumor activity against human HCT116 cells xenografted in po dosed mouse assessed as reduction in tumor growth dosed daily for 21 days; type: functional, organism-based
Mus musculus [8] = assay: Effect on histone H2B acetylation in human HCT116 cells xenografted in CD1 mouse assessed as change in ratio of acetylated to deacetylated histone level at 150 mg/kg, po QD for 3 days measured after 24 hrs; type: functional, organism-based; set-up: dose 150 mg/kg; settings: HCT-116
[9] = Plasma concentration in ip dosed nude CD-1 mouse after 3 hrs
[10] = Volume of distribution at steady state in Beagle dog; type: ADME, organism-based, Canis lupus familiaris; settings: in vivo, read-out: Vdss
[11] = Clearance in Sprague-Dawley rat plasma; type: ADME, organism-based
[12] = Half life in Swiss-Webster mouse; type: ADME, organism-based; settings: in vivo
[13] = Oral bioavailability in Sprague-Dawley rat; type: ADME, organism-based; settings: in vivo
[14] = Volume of distribution at steady state in Swiss-Webster mouse; type: ADME, organism-based; settings: in vivo, read-out: Vdss
[15] = AUC (0 to infinity) in po dosed Sprague-Dawley rat; type: ADME, organism-based; set-up: time infinity, route oral; settings: plasma
[16] = Volume of distribution at steady state in Sprague-Dawley rat; type: ADME, organism-based; settings: in vivo, read-out: Vdss
[17] = AUC (0 to infinity) in Beagle dog; type: ADME, organism-based, Canis lupus familiaris; set-up: time infinity; settings: plasma
[18] = Half life in Sprague-Dawley rat; type: ADME, organism-based; settings: in vivo
[19] = AUC (0 to infinity) in Swiss-Webster mouse; type: ADME, organism-based; set-up: time infinity; settings: plasma
[20] = Half life in Beagle dog; type: ADME, organism-based, Canis lupus familiaris; settings: in vivo

Sequence of Histone deacetylase 1 (Q13547 whole entry): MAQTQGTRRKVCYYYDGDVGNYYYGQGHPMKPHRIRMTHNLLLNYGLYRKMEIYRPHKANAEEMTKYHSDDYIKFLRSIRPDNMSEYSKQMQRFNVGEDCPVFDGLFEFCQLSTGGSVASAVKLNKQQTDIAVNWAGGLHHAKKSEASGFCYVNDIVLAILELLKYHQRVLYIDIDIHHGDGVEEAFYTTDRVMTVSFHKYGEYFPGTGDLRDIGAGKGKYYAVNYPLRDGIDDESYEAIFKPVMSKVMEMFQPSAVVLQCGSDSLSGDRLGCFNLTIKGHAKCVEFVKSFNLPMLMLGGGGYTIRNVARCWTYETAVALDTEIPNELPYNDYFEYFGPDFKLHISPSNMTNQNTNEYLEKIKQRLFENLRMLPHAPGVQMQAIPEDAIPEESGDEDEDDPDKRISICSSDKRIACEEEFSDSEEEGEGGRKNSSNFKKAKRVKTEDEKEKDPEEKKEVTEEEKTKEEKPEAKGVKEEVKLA
Sequence of Histone deacetylase 4 (P56524 whole entry): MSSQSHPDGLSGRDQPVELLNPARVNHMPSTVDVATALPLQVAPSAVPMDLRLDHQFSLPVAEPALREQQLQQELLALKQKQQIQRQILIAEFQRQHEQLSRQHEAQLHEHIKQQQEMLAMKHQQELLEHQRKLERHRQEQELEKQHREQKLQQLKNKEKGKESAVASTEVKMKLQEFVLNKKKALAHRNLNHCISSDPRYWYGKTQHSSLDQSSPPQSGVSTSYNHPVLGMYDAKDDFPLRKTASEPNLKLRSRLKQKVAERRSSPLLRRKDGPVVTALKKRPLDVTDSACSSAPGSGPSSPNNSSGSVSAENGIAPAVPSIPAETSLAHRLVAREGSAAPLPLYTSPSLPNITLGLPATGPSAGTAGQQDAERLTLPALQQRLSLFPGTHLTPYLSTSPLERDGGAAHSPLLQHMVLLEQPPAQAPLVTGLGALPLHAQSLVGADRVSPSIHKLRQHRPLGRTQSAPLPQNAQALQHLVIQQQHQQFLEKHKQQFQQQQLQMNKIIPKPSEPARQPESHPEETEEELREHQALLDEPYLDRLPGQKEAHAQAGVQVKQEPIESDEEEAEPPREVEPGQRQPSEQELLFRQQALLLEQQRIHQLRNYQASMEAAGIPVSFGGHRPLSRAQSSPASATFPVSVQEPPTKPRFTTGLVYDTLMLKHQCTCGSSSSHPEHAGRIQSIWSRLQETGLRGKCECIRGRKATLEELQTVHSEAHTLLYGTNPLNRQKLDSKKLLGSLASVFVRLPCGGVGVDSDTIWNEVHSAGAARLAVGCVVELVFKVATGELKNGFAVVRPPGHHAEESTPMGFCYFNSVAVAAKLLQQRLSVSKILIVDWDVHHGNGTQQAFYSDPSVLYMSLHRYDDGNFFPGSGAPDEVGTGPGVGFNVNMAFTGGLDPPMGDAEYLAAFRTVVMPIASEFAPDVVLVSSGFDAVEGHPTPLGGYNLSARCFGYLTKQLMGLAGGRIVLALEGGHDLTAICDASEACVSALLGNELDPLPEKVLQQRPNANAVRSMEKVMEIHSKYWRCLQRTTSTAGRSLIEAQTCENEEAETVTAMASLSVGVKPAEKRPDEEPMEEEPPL
Sequence of Histone deacetylase 3 (O15379 whole entry): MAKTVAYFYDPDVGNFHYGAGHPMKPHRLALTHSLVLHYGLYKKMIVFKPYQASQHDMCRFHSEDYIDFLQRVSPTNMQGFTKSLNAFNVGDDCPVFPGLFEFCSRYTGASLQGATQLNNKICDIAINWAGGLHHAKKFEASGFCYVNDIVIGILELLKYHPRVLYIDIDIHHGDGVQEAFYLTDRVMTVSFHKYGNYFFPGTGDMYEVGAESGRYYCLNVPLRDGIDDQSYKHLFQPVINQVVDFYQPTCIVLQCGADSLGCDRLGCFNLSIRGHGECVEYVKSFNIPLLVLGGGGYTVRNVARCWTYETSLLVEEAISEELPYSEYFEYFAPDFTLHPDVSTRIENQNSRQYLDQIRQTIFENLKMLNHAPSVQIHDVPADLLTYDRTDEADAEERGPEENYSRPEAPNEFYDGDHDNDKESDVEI
Sequence of Histone deacetylase 2 (Q92769 whole entry): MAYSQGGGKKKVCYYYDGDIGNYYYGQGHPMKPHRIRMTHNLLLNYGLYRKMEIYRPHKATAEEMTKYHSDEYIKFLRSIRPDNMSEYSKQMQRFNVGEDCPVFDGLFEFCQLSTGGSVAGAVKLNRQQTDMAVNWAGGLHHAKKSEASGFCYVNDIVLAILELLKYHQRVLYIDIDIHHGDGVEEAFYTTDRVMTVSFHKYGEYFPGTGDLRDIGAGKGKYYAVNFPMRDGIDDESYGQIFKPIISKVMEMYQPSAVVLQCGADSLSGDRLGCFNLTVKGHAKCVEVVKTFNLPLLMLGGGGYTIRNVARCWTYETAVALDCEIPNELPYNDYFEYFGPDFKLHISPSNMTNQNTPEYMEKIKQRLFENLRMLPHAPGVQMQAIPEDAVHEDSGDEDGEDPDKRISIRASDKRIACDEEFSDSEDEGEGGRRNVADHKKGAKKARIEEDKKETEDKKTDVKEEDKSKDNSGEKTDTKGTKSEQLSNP
Sequence of Histone deacetylase 5 (Q9UQL6 whole entry): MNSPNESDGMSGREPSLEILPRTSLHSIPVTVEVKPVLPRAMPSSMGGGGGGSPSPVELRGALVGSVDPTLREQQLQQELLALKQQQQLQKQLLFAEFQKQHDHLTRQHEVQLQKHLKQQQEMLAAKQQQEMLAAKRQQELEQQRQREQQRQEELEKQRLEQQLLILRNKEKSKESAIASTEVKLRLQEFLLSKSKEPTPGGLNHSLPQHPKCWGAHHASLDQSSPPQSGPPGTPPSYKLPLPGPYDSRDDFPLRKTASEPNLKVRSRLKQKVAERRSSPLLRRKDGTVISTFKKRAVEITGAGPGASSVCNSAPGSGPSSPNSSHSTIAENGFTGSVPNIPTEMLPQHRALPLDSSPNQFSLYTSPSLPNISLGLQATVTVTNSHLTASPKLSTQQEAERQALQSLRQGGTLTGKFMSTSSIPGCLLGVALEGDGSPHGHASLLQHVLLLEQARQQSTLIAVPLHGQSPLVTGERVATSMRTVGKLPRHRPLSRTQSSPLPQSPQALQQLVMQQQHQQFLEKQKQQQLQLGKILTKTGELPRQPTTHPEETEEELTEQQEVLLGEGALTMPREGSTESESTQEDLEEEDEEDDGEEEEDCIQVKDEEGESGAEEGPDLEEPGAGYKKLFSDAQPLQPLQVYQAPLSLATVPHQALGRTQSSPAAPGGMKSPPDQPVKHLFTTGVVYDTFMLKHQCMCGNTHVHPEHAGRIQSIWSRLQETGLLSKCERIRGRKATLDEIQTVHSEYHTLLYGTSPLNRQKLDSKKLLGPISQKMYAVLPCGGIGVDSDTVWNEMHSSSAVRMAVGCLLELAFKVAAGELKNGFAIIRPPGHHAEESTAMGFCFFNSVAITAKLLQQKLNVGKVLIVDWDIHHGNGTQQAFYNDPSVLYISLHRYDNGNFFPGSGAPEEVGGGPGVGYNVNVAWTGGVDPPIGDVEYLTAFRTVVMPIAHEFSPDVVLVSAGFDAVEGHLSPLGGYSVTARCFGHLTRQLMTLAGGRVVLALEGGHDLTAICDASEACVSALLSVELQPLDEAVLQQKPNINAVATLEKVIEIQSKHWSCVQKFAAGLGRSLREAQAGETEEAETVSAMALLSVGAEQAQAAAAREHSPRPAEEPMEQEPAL

Structure (SMILES) | Cmax [1] [µM] | IC50 (Histone deacetylase 1) [nM] | GI50 (HCT-116 [2]) [nM] | AUC [3] [µM·h] | other results
CCOP(=O)(Cc1cccc(C(=O)Nc2cc(-c3cccs3)ccc2N)c1)OCC | – | 23 | 2500 | – | –
CCOP(C)(=O)c1ccc(C(=O)Nc2cc(-c3cccs3)ccc2N)cc1 (centres undefined) | 43 | 14 | 460 | 44 | –
CCP(=O)(CC)Cc1cccc(C(=O)Nc2cc(-c3cccs3)ccc2N)c1 | – | 270 | > 20000 | – | –
CCOP(=O)(CNCc1ccc(C(=O)Nc2cc(-c3cccs3)ccc2N)cc1)OCC | – | 7.7 | 300 | – | IC50 [4]: > 50000 nM; Activity (Mus musculus [5]): Active; IC50 (Histone deacetylase 4): > 50000 nM; IC50 (Histone deacetylase 8): 37000 nM; IC50 (Histone deacetylase 2): 14 nM; IC50 (Histone deacetylase 3): 12000 nM; IC50 (Histone deacetylase 7): > 50000 nM; IC50 (Histone deacetylase 5): > 50000 nM; Activity (Mus musculus [6]): Non-toxic; IC50 (Histone deacetylase 11): > 50000 nM; Activity (HCT-116 [7]): Dose-dependent effect
Nc1ccc(-c2cccs2)cc1NC(=O)c1ccc(CP(=O)(O)c2ccccc2)cc1 | – | 28 | > 20000 | – | –
CCOP(C)(=O)Cc1ccc(C(=O)Nc2cc(-c3cccs3)ccc2N)cc1 (centres undefined) | 31 | 16 | 330 | 50 | Activity (Mus musculus [8]): inactive
CCOP(=O)(O)c1ccc(C(=O)Nc2cc(-c3cccs3)ccc2N)cc1 | – | 42 | > 20000 | – | –

Further compounds by falling IC50 (Histone deacetylase 1), results first:

Cmax [1] [µM] | IC50 (Histone deacetylase 1) [nM] | GI50 (HCT-116 [2]) [nM] | AUC [3] [µM·h] | Structure (SMILES) | other results
– | 13 | 250 | – | CCOP(=O)(Cc1ccc(C(=O)Nc2cc(-c3cccs3)ccc2N)cc1)OCC | concentration at 3 h [9]: 1.54 µM; Vd [10]: 2.85 L/kg; clearance [11]: 15.8 mL/min/kg; half-life [12]: 55 h; bioavailability [13]: 45%; Vd [14]: 20.1 L/kg; AUC(0-inf) [15]: 4.4 µM·h; Vd [16]: 7.27 L/kg; AUC(0-inf) [17]: 0.25 µM·h; half-life [18]: 5.5 h; AUC(0-inf) [19]: 0.17 µM·h; half-life [20]: 0.43 h
14 | 9 | 200 | 17 | CCP(=O)(CC)Cc1ccc(C(=O)Nc2cc(-c3cccs3)ccc2N)cc1 | –
– | 7 | 130 | – | CCP(=O)(Cc1ccc(C(=O)Nc2cc(-c3cccs3)ccc2N)cc1)OC (centres undefined) | –
17 | 6.5 | 240 | 17 | CCOP(=O)(CC)Cc1ccc(C(=O)Nc2cc(-c3cccs3)ccc2N)cc1 (centres undefined) | –
